Measurements: patent publication US12077486B2, “Quaternary fatty amidoamine detergents” (NOURYON CHEMICALS INTERNATIONAL B.V., priority 2018, dated 2024)

Experiments:
[1] = solubility in an a-polar medium; format: physicochemical
Experimental: Throughout this document, unless indicated differently, the weight percentages of the compositions are based on the total weight of the composition, whereby the total weight of the composition is 100 wt %. The term water-soluble is used for materials that dissolve in an amount of at least 1 g per liter of demineralized water at 25° C. Where used, the term “consisting” also embraces “consisting substantially”, but may optionally be limited to its strict meaning of “consisting entirely”. An a-polar (nonpolar) medium is herein defined as a material having a dielectric coefficient of less than 7 at 20° C. Typically it is a liquid at the temperature of use. Suitably it is a medium with a dielectric coefficient at 20° C. of less than 6.5, 6, 5.5, 5, 4.5, 4, 3.5, or 3. The dielectric constant is measured in accordance with ASTM D150. The term “substantially free” is used fora moiety that is present in an amount of less than 2% by weight. Similarly, the term “essentially” is used to denote a composition that consists for more than 95% by weight of the indicated components.

[2] = stabilization of a dispersion of solids in a-polar medium; conditions: over a wide range of temperatures

dissolution in an a-polar medium [1]: easily dissolve | stabilization of a dispersion of solids in the dissolution [2]: perfectly stabilize
SMILES: CCCCC/C=C\CCC(CCCCCCCC(=O)NCCC[N+](C)(C)C)C(CCCCCCCC)CCCCCCCCC(=O)NCCC[N+](C)(C)C (centres unmarked) [Preparation Example 1]
